Test results from patent EP1283052A1, “Pharmaceutical composition containing caspase-8 and /or caspase-9 useful for overcoming glucocorticoid- and cancer therapy-induced apoptosis of tumours” (Deutsches Krebsforschungszentrum Stiftung des öffentlichen …, priority 2001, dated 2003).

Test system: caspase-9
Experiment: RT-PCR for caspase-9 mRNA expression in P5 cells
Type: cell-based, human
Conditions: cisplatin 2 µg/ml, 6 and 24 h, Fig. 4a
Protocol: P5 cells either untreated (CO) or stimulated with cisplatin (CIS, 2 µg/ml) were incubated in the absence or presence of DEX (1 µM). • (a) 6 and 24 h later RNA was extracted and assayed by RT-PCR for expression of caspase-9. Expression of the GAPDH gene served as control for equal conditions. • (b) 24 h after stimulation expression of caspase-9 proteins was examined by immunofluorescence staining using a rabbit polyclonal caspase-9 antibody and a FITC-coupled secondary antibody. Staining with the secondary antibody alone served as control for unspecific binding. • (c) 48 and 72 h after treatment whole cell proteins were extracted and analysed for expression of caspase-9 and caspase-3. The protein sizes in kDa are indicated on the right. […]
• (A) Cell culture. […] The mice were given 0.28 mg/L DEX in drinking water, and the amount of water consumed was monitored. […] The tumour volumes were measured using callipers, and calculated using, as an approximation, the formula for volume of a hemi-ellipsoid: π(width^2 x length)/6. […] Early apoptotic changes were identified by staining of cells with fluoresceinthiocyanate (FITC)-conjugated annexin V and propidium iodide (Becton Dickinson, Heidelberg, Germany) and analysed by flow cytometry (FACScan, Becton Dickinson) as described (Herr et al., EMBO J. 16 (1997), 6200-6208) • (E) Immunohistochemistry. […]

Compound: N.N.[Cl][Pt][Cl] [cisplatin]
- caspase-9 mRNA expression: strongly enhanced
